# Structures can show the parent of a compound that is named as a salt.
# Tests used:
# male rats = assay: Stimulation of sexual behaviour in male rats (pre-copulatory and copulatory counts over 30 minutes); format: in vivo, Sprague Dawley rats; conditions: 10 mg/kg oral
# Protocol: The extracts of the current invention were then evaluated for their efficacy in vivo to stimulate sexual behavior in male rats. Briefly, healthy Sprague Dawley rats were acclimatized and randomized into various treatment groups (G1 to G6) as summarized in table 5. These animals were introduced to mating with female counterparts, which were previously treated with 100 μg/rat of estradiol benzoate and 1 mg/rat of progesterone at approximately 48 hours and 4 hours respectively prior to mating. […] The scored test parameters include frequency of licking, anogenital sniffing, climbing, genital grooming, mounting and intromission.
# Separately, a set of 42 healthy female rats were selected and each of them were treated with single dose of 100 μg of estradiol benzoate and 1 mg of progesterone at approximately 48 hours and 4 hours respectively prior to introduction to mating.
# One hour after test substance administration, each male rat was allowed to mate with a female rat in oestrus phase. Male sexual behaviour was measured for a period of 30 minutes with the aid of video recording. The scored test parameters include frequency of licking, anogenital sniffing, climbing, genital grooming, mounting, intromission and the results are summarized in tables 6 and 7, and depicted in FIG. 1.
# cyclic GMP = assay: Plasma cyclic GMP estimation by ELISA after mating period; format: in vivo, Sprague Dawley rats; conditions: 10 mg/kg oral, plasma after 30 minutes mating period
# Protocol: After 30 minutes of mating period, blood sample were collected from all animals, plasma separated and subjected to cyclic-GMP estimation using cyclic GMP ELISA Kit supplied by Cayman (Cat No 581022) as per the procedure provided by the manufacturer. The plasma cyclic GMP modulation data is summarized in Table 8 and depicted in FIG. 2.
# After 30 minutes of mating period, blood sample was collected from each animal, plasma separated and the cyclic-GMP content was estimated using cyclic GMP ELISA Kit supplied by Cayman (Cat No 581022) as per the procedure provided by the manufacturer.
structure (smiles),measurement,setting,value
CCCc1nn(C)c2c(=O)[nH]c(-c3cc(S(=O)(=O)N4CCN(C)CC4)ccc3OCC)nc12 [Sildenafil citrate],Climbing count Mean ± SE,male rats,13.50 ± 2.96
same,Genital grooming count Mean ± SE,male rats,15.33 ± 9.20
same,Intromission frequency Mean ± SE,male rats,3.67 ± 2.55
same,Mounting count Mean ± SE,male rats,5.50 ± 2.43
same,Sniffing count Mean ± SE,male rats,25.83 ± 8.55
same,Licking count Mean ± SE,"male rats; 1 hr before mating, 30 minutes",14.83 ± 11.32
same,Cyclic GMP levels (plasma),cyclic GMP,18.79 ± 1.65 pmol/mL
same,Cyclic GMP levels (plasma),cyclic GMP; listed as sildenafil citrate,18.79 pmol/mL
